Target: T1, human mAChR M4 (Homo sapiens, UniProt P08173)
T1 construct: expressed in transfected cells; host or cells: CHO-K1 (ATCC), stably expressing hM4 and Gqi5
T1 sequence (P08173 1-479): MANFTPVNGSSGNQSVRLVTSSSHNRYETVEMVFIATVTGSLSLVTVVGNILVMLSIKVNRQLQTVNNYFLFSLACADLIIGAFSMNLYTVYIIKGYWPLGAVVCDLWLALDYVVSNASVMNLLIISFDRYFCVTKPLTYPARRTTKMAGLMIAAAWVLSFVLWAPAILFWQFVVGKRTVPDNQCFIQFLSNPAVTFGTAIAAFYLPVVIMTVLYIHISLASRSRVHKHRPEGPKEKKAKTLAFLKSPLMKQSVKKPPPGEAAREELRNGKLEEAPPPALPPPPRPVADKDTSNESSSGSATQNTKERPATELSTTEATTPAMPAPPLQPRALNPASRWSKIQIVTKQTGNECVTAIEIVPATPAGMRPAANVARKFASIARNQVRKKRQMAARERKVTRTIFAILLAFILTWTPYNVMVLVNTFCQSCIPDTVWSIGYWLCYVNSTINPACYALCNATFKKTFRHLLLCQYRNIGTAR
Test: mAChR M4 cell-based functional assay: calcium flux (Fluo-4, FDSS), positive allosteric modulator activity on the EC20 acetylcholine response, hM4-Gqi5 CHO-K1 cells
Settings: for Emax at 30 µM: CHO-K1, human M4; for EC50: PAM activity on EC20 acetylcholine response, calcium flux, read-out: Human M4 EC50
Procedure: Human M4 cDNA, along with the chimeric G protein Gqi5, were transfected into Chinese hamster ovary (CHO-K1) cells purchased from the American Type Culture Collection using commercially available Lipofectamine 2000 transfection reagent (Dalby, B. et al., Methods (2004) 33(2), 95-103). hM4-Gqi5 cells were grown in Ham's F-12 medium containing 10% heat-inactivated fetal bovine serum (FBS), 20 mM […], 50 μg/mL G418 sulfate (CAS #108321-42-2), and 500 μg/mL Hygromycin B. rM4-Gqi5 cells were grown in DMEM containing 10% heat-inactivated FBS, 20 mM HEPES, 400 μg/mL G418 sulfate, and 500 μg/mL Hygromycin B.
For high throughput measurement of agonist-evoked increases in intracellular calcium, CHO-K1 cells stably expressing muscarinic receptors were plated in growth medium lacking G418 sulfate and hygromycin at 15,000 cells/20 μL/well in Greiner 384-well black-walled, tissue culture (TC)-treated, clear-bottom plates (VWR). Cells were incubated overnight at 37° C. and 5% C02. The next day, cells were washed using an ELX 405 (BioTek) with assay buffer; the final volume was then aspirated to 20 μL. Next, 20 μL of a 2.3 μM stock of Fluo-4/acetoxymethyl ester (Invitrogen, Carlsbad, CA), prepared as a 2.3 mM stock in DMSO and mixed in a 1:1 ratio with 10% (w/v) Pluronic F-127 and diluted in assay buffer, was added to the wells and the cell plates were incubated for 50 minutes at 37° C. and 5% C02. Dye was removed by washing with the ELX 405 and the final volume was aspirated to 20 μL. Compound master plates were formatted in an 11 point concentration-response curve (CRC) format (1:3 dilutions) in 100% DMSO with a starting concentration of 10 mM using a BRAVO liquid handler (Agilent). Test compound CRCs were then transferred to daughter plates (240 nL) using the Echo acoustic plate reformatter (Labcyte, Sunnyvale, CA) and then diluted into assay buffer (40 μL) to a 2× stock using a Thermo Fisher Combi (Thermo Fisher Scientific, Waltham, MA).
Calcium flux was measured using the Functional Drug Screening System (FDSS) 6000 or 7000 (Hamamatsu Corporation, Tokyo, Japan) as an increase in the fluorescent static ratio. Compounds were applied to cells (20 μL, 2×) using the automated system of the FDSS at 2-4 seconds into the protocol and the data were collected at 1 Hz. At 144 seconds, 10 μL of an EC20 concentration of the muscarinic receptor agonist acetylcholine was added (5×), followed by the addition of 12 μL of an EC80 concentration of acetylcholine at the 230 second time point (5×). Agonist activity was analyzed as a concentration-dependent increase in calcium mobilization upon compound addition. Positive allosteric modulator activity was analyzed as a concentration-dependent increase in the EC20 acetylcholine response. With the acetylcholine EC20 set as baseline, the test compound EC50 is determined as the concentration that produces an increase above baseline of 50% of the maximum increase in acetylcholine response elicted by the test compound. Antagonist activity was analyzed as a concentration-dependent decrease in the ECso acetylcholine response. Concentration-response curves were generated using a four-parameter logistical equation in XLFit curve fitting software (IDBS, Bridgewater, NJ) for Excel (Microsoft, Redmond, WA) or Prism (GraphPad Software, Inc., San Diego, CA).
Compounds were synthesized as described above. Activity (EC50 and Emax) was determined in the mAChR M4 cell-based functional assay as described above and the data are shown in Table 4. The compound numbers correspond to the compound numbers used in Examples 1-33 and Tables 1, 2, and 3.

Structure (SMILES)	Emax at 30 µM (% ACh maximum at 30 μM)	EC50 (human M4)	Emax (%) (human M4, % ACh maximum at 30 μM)
CC1CN(c2ncnc3ccc(F)cc23)Cc2cc(C(F)(F)F)cnc21 (racemic) [Compound 115, 6-fluoro-4-[8-methyl-3-(trifluoromethyl)-7,8-dihydro-5H-1,6-naphthyridin-6-yl]quinazoline]	93%	60 nM	
CC1CN(c2ncnc3ccc(F)cc23)Cc2cc(C(F)(F)F)cnc21 (single isomer, unassigned) [Compound 116, 6-fluoro-4-[(8R or S)-8-methyl-3-(trifluoromethyl)-7,8-dihydro-5H-1,6-naphthyridin-6-yl]quinazoline]	113%	70 nM	
CC1CN(c2ncnc3ccc(F)cc23)Cc2cc(C(F)(F)F)cnc21 (single isomer, unassigned) [Compound 117, 6-fluoro-4-[(8R or S)-8-methyl-3-(trifluoromethyl)-7,8-dihydro-5H-1,6-naphthyridin-6-yl]quinazoline]		400 nM	100%
Fc1ccc2ncnc(N3CCc4ncc(-c5cnn(C6CC6)c5)cc4C3)c2c1 [Compound 1, 4-[3-(1-cyclopropylpyrazol-4-yl)-7,8-dihydro-5H-1,6-naphthyridin-6-yl]-6-fluoro-quinazoline]	99%	130 nM	
Cc1noc(C)c1-c1cnc2c(c1)CN(c1ncnc3ccc(Cl)cc13)CC2 [Compound 2, 4-[6-(6-chloroquinazolin-4-yl)-7,8-dihydro-5H-1,6-naphthyridin-3-yl]-3,5-dimethyl-isoxazole]	86%	60 nM	
Cc1nc(N2CCc3ncc(-c4ccc(C(F)(F)F)nc4)cc3C2)c2cc(F)ccc2n1 [Compound 3, 6-fluoro-2-methyl-4-[3-[6-(trifluoromethyl)-3-pyridyl]-7,8-dihydro-5H-1,6-naphthyridin-6-yl]quinazoline]	75%	460 nM	
Cc1nc(N2CCc3ncc(-c4ccc(C(F)(F)F)nc4)cc3C2)c2cc(Cl)ccc2n1 [Compound 4, 6-chloro-2-methyl-4-[3-[6-(trifluoromethyl)-3-pyridyl]-7,8-dihydro-5H-1,6-naphthyridin-6-yl]quinazoline]	57%	860 nM	
Cc1nc(N2CCc3ncc(-c4cnn(C5CC5)c4)cc3C2)c2cc(F)ccc2n1 [Compound 5, 4-[3-(1-cyclopropylpyrazol-4-yl)-7,8-dihydro-5H-1,6-naphthyridin-6-yl]-6-fluoro-2-methyl-quinazoline]	80%	340 nM	
Cc1nn(C)cc1-c1cnc2c(c1)CN(c1ncnc3ccc(Cl)cc13)CC2 [Compound 6, 6-chloro-4-[3-(1,3-dimethylpyrazol-4-yl)-7,8-dihydro-5H-1,6-naphthyridin-6-yl]quinazoline]	88%	70 nM	
Cc1nc(N2CCc3ncc(-c4cn(C)nc4C)cc3C2)c2cc(Cl)ccc2n1 [Compound 7, 6-chloro-4-[3-(1,3-dimethylpyrazol-4-yl)-7,8-dihydro-5H-1,6-naphthyridin-6-yl]-2-methyl-quinazoline]	93%	250 nM	
Cc1nn(C)cc1-c1cnc2c(c1)CN(c1ncnc3cc(F)c(F)cc13)CC2 [Compound 8, 4-[3-(1,3-dimethylpyrazol-4-yl)-7,8-dihydro-5H-1,6-naphthyridin-6-yl]-6,7-difluoro-quinazoline]	87%	60 nM	
Cc1nn(C)cc1-c1cnc2c(c1)CN(c1nc(Cl)nc3ncccc13)CC2 [Compound 9, 2-chloro-4-[3-(1,3-dimethylpyrazol-4-yl)-7,8-dihydro-5H-1,6-naphthyridin-6-yl]pyrido[2,3-d]pyrimidine]	66%	2490 nM	
Cc1nc(N2CCc3ncc(-c4cn(C)nc4C)cc3C2)c2cc(F)ccc2n1 [Compound 10, 4-[3-(1,3-dimethylpyrazol-4-yl)-7,8-dihydro-5H-1,6-naphthyridin-6-yl]-6-fluoro-2-methyl-quinazoline]	90%	120 nM	
Cc1nn(C)cc1-c1cnc2c(c1)CN(c1ncnc3ccc(F)cc13)CC2 [Compound 11, 4-[3-(1,3-dimethylpyrazol-4-yl)-7,8-dihydro-5H-1,6-naphthyridin-6-yl]-6-fluoro-quinazoline]	83%	100 nM	
Cc1ccc2ncnc(N3CCc4ncc(-c5cnn(C6CC6)c5)cc4C3)c2c1 [Compound 12, 4-[3-(1-cyclopropylpyrazol-4-yl)-7,8-dihydro-5H-1,6-naphthyridin-6-yl]-6-methyl-quinazoline]	114%	230 nM	
COc1ccc2ncnc(N3CCc4ncc(-c5cn(C)nc5C)cc4C3)c2c1 [Compound 13, 4-[3-(1,3-dimethylpyrazol-4-yl)-7,8-dihydro-5H-1,6-naphthyridin-6-yl]-6-methoxy-quinazoline]	109%	370 nM	
Cc1ccc2ncnc(N3CCc4ncc(-c5cn(C)nc5C)cc4C3)c2c1 [Compound 14, 4-[3-(1,3-dimethylpyrazol-4-yl)-7,8-dihydro-5H-1,6-naphthyridin-6-yl]-6-methyl-quinazoline]	117%	160 nM	
Cn1cc(-c2cnc3c(c2)CN(c2ncnc4ccc(F)cc24)CC3)cn1 [Compound 15, 6-fluoro-4-[3-(1-methylpyrazol-4-yl)-7,8-dihydro-5H-1,6-naphthyridin-6-yl]quinazoline]	105%	40 nM	
Fc1ccc2ncnc(N3CCc4ncc(-c5ccc(C(F)(F)F)nc5)cc4C3)c2c1 [Compound 16, 6-fluoro-4-[3-[6-(trifluoromethyl)-3-pyridyl]-7,8-dihydro-5H-1,6-naphthyridin-6-yl]quinazoline]	89%	360 nM	
Clc1ccc2ncnc(N3CCc4ncc(-c5cnn(C6CC6)c5)cc4C3)c2c1 [Compound 17, 6-chloro-4-[3-(1-cyclopropylpyrazol-4-yl)-7,8-dihydro-5H-1,6-naphthyridin-6-yl]quinazoline]	78%	120 nM	
Cn1nccc1-c1cnc2c(c1)CN(c1ncnc3ccc(F)cc13)CC2 [Compound 18, 6-fluoro-4-[3-(2-methylpyrazol-3-yl)-7,8-dihydro-5H-1,6-naphthyridin-6-yl]quinazoline]	70%	40 nM	
Cc1nc(N2CCc3ncc(-c4cnn(C5CC5)c4)cc3C2)c2cc(Cl)ccc2n1 [Compound 19, 6-chloro-4-[3-(1-cyclopropylpyrazol-4-yl)-7,8-dihydro-5H-1,6-naphthyridin-6-yl]-2-methyl-quinazoline]	80%	390 nM	
Cc1nc(N2CCc3ncc(-c4ccnn4C)cc3C2)c2cc(F)ccc2n1 [Compound 20, 6-fluoro-2-methyl-4-[3-(2-methylpyrazol-3-yl)-7,8-dihydro-5H-1,6-naphthyridin-6-yl]quinazoline]	86%	150 nM	
